Legend:
CDK9 = target: T1, CDK9 (Homo sapiens, UniProt P50750); assay: CDK protein degradation activity (Western blotting), CDK9; assay type: cell-based; conditions: MDA-MB-231 cells, 16 hours, Western blot
T1 construct: endogenous in cells; host or cells: MDA-MB-231
Method in brief: (§1)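 Breast cancer line MDA-MB-231, 16 h compound treatment (100 nM–10 μM final, three doses). Immunoblot quantification of CDK2/CDK9 versus tubulin, normalized to DMSO control.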

CDK2 = target: T2, CDK2 (Homo sapiens, UniProt P24941); assay: CDK protein degradation activity (Western blotting), CDK2; assay type: cell-based; conditions: MDA-MB-231 cells, 16 hours, Western blot
T2 construct: endogenous in cells; host or cells: MDA-MB-231
Method in brief: as §1

T1 sequence (P50750 whole entry): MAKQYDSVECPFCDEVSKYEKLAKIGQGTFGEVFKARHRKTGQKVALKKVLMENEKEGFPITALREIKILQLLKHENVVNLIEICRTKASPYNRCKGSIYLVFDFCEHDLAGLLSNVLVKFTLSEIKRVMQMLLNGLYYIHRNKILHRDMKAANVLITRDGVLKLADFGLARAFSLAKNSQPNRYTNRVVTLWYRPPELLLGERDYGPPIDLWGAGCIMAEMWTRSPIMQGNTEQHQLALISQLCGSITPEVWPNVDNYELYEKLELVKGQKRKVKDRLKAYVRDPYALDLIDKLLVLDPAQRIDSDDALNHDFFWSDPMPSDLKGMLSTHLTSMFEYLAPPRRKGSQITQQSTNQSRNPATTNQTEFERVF

Compound | Enzyme degradation CDK9 (% remaining) @ 0.1 μM (CDK9) | Enzyme degradation CDK9 (% remaining) @ 1 μM (CDK9) | Enzyme degradation CDK9 (% remaining) @ 10 μM (CDK9) | Enzyme degradation CDK2 (% remaining) @ 0.1 μM (CDK2) | Enzyme degradation CDK2 (% remaining) @ 1 μM (CDK2) | Enzyme degradation CDK2 (% remaining) @ 10 μM (CDK2)
Cc1cccc(C(=O)NC2CC(n3cnc4c(NCc5ccc(N6CCN(C(=O)CNc7cccc8c7C(=O)N([C@H]7CCC(=O)NC7=O)C8=O)CC6)cc5)ncnc43)C2)n1 (stereo partly drawn) [Compound 148, N-((1s,3s)-3-(6-((4-(4-((2-(2,6-dioxopiperidin-3-yl)-1,3-dioxoisoindolin-4-yl)glycyl)piperazin-1-yl)benzyl)amino)-9H-purin-9-yl)cyclobutyl)-6-methylpicolinamide] | 10% | 0% | 0% | 40% | 50% | 60%
O=C1CC[C@H](N2C(=O)c3ccc(NCC(=O)N4CCC(CCCN5CCN(c6ccc(Nc7ncnc8c7ncn8[C@H]7C[C@@H](NC(=O)Cc8ccccc8)C7)cc6)CC5)CC4)cc3C2=O)C(=O)N1 (racemic) [Compound 255, N-((1s,3s)-3-(6-((4-(4-(3-(1-((2-(2,6-dioxopiperidin-3-yl)-1,3-dioxoisoindolin-5-yl)glycyl)piperidin-4-yl)propyl)piperazin-1-yl)phenyl)amino)-9H-purin-9-yl)cyclobutyl)-2-phenylacetamide] | 0/0/0% | 0/0/0% | 0/0/0% | 30/30/30% | 30/30/30% | 30/30/30%
O=C1CC[C@@H](c2cccc(OCC(=O)N3CCN(CCCN4CCN(c5ccc(Nc6ncnc7c6ncn7C6CC(NC(=O)Cc7ccccc7)C6)cc5)CC4)CC3)c2)C(=O)N1 (stereo partly drawn) [Compound 237, N-((1s,3s)-3-(6-((4-(4-(3-(4-(2-(3-(2,6-dioxopiperidin-3-yl)phenoxy)acetyl)piperazin-1-yl)propyl)piperazin-1-yl)phenyl)amino)-9H-purin-9-yl)cyclobutyl)-2-phenylacetamide] | 20% | 0% | 0% | 10% | 0% | 0%
O=C1CC[C@H](N2C(=O)c3ccc(OCC(=O)N4CCC(CCCN5CCN(c6ccc(Nc7ncnc8c7ncn8[C@H]7C[C@@H](NC(=O)Cc8ccccc8)C7)cc6)CC5)CC4)cc3C2=O)C(=O)N1 [Compound 256, N-((1s,3s)-3-(6-((4-(4-(3-(1-(2-((2-(2,6-dioxopiperidin-3-yl)-1,3-dioxoisoindolin-5-yl)oxy)acetyl)piperidin-4-yl)propyl)piperazin-1-yl)phenyl)amino)-9H-purin-9-yl)cyclobutyl)-2-phenylacetamide] | 60% | 10% | 0% | 40% | 30% | 30%
Cc1cccc(C(=O)NC2CC(n3cnc4c(NC5CCN(CCOC6CCN(c7cccc8c7C(=O)N([C@H]7CCC(=O)NC7=O)C8=O)CC6)CC5)ncnc43)C2)n1 (stereo partly drawn) [Compound 48, N-((1s,3s)-3-(6-((1-(2-((1-(2-(2,6-dioxopiperidin-3-yl)-1,3-dioxoisoindolin-4-yl)piperidin-4-yl)oxy)ethyl)piperidin-4-yl)amino)-9H-purin-9-yl)cyclobutyl)-6-methylpicolinamide] | 50% | 20% | 20% | 100/100/100% | 100/100/100% | 100/100/100%
O=C1CC[C@H](N2C(=O)C=C(Nc3cccc(CC(=O)N4CCC(CC(=O)N5CCN(c6ccc(Nc7ncnc8c7ncn8[C@H]7C[C@@H](NC(=O)Cc8ccccc8)C7)cc6)CC5)CC4)c3)C2=O)C(=O)N1 [Compound 196, N-((1s,3s)-3-(6-((4-(4-(2-(1-(2-(3-((1-(2,6-dioxopiperidin-3-yl)-2,5-dioxo-2,5-dihydro-1H-pyrrol-3-yl)amino)phenyl)acetyl)piperidin-4-yl)acetyl)piperazin-1-yl)phenyl)amino)-9H-purin-9-yl)cyclobutyl)-2-phenylacetamide] | 30% | 40% | 40% | 80% | 100% | 100%
N-((1s,3s)-3-(6-((4-(4-(3-(4-(1-(2-(2,6-dioxopiperidin-3-yl)-1,3-dioxoisoindolin-5-yl)azetidin-3-carbonyl)piperazin-1-yl)propyl)piperidin-1-yl)phenyl)amino)-9H-purin-9-yl)cyclobutyl)-2-phenylacetamide [Compound 366] | 10/10/10% | 10/10/10% | 10/10/10% | 20% | 0% | 0%
O=C1CC[C@H](N2C(=O)c3cccc(NCC(=O)N4CCC(CN5CCN(c6ccc(Nc7ncnc8c7ncn8[C@H]7C[C@@H](NC(=O)c8cccc(C(F)(F)F)n8)C7)cc6)CC5)CC4)c3C2=O)C(=O)N1 [Compound 425, N-((1s,3s)-3-(6-((4-(4-((1-((2-(2,6-dioxopiperidin-3-yl)-1,3-dioxoisoindolin-4-yl)glycyl)piperidin-4-yl)methyl)piperazin-1-yl)phenyl)amino)-9H-purin-9-yl)cyclobutyl)-6-(trifluoromethyl)picolinamide] | 0/0/0% | 0/0/0% | 0/0/0% | 0/0/0% | 0/0/0% | 0/0/0%
Cc1cccc(C(=O)NC2CC(n3cnc4c(Nc5ccc(N6CCN(CCC7CCN(C(=O)C8CCN(c9cc%10c(cc9F)C(=O)N([C@H]9CCC(=O)NC9=O)C%10=O)CC8)CC7)CC6)cc5)ncnc43)C2)n1 (stereo partly drawn) [Compound 449, N-((1s,3s)-3-(6-((4-(4-(2-(1-(1-(2-(2,6-dioxopiperidin-3-yl)-6-fluoro-1,3-dioxoisoindolin-5-yl)piperidin-4-carbonyl)piperidin-4-yl)ethyl)piperazin-1-yl)phenyl)amino)-9H-purin-9-yl)cyclobutyl)-6-methylpicolinamide] | 10/10/10% | 10/10/10% | 10/10/10% | 50% | 40% | 40%
O=C1CC[C@H](N2C(=O)c3ccc(N4CC(C(=O)N5CCN(CCC6CCN(c7ccc(Nc8ncnc9c8ncn9[C@H]8C[C@@H](NC(=O)Cc9ccccc9)C8)cc7)CC6)CC5)C4)cc3C2=O)C(=O)N1 [Compound 362, N-((1s,3s)-3-(6-((4-(4-(2-(4-(1-(2-(2,6-dioxopiperidin-3-yl)-1,3-dioxoisoindolin-5-yl)azetidin-3-carbonyl)piperazin-1-yl)ethyl)piperidin-1-yl)phenyl)amino)-9H-purin-9-yl)cyclobutyl)-2-phenylacetamide] | 40% | 0% | 0% | 90% | 80% | 70%
CC(=O)N[C@H]1C[C@@H](n2cnc3c(NCc4ccc(N5CCN(CC6CCN(C(=O)CNc7ccc8c(c7)C(=O)N([C@H]7CCC(=O)NC7=O)C8=O)CC6)CC5)cc4)ncnc32)C1 [Compound 161, N-((1s,3s)-3-(6-((4-(4-((1-((2-(2,6-dioxopiperidin-3-yl)-1,3-dioxoisoindolin-5-yl)glycyl)piperidin-4-yl)methyl)piperazin-1-yl)benzyl)amino)-9H-purin-9-yl)cyclobutyl)acetamide] | 30% | 10% | 10% | 90% | 80% | 60%
